Test results: ChEMBL document CHEMBL4033662, “The computer-aided discovery of novel family of the 5-HT6 serotonin receptor ligands among derivatives of 4-benzyl-1,3,5-triazine” (Eur J Med Chem, 2017)

Each compound was assayed on Rattus norvegicus (assay: Antidepressant activity in Wistar rat assessed as decrease in immobility time at 0.3 mg/kg, ip administered 60 mins prior to testing measured for 5 mins by forced swim test).
Type: functional
Design: scale not given: the % may be the effect or the level left
`CN1CCN(c2nc(N)nc(Cc3cccc(Cl)c3)n2)CC1` showed an Activity of 29%.
Work on `CN1CCN(c2nc(N)nc(Cc3c[nH]c4ccccc34)n2)CC1` yielded an Activity of 37%.
With `Cc1cccc(Cc2nc(N)nc(N3CCN(C)CC3)n2)c1` the Activity was 30%.

These compounds were tested against 5-hydroxytryptamine receptor 6 (Homo sapiens, UniProt P50406) (assay: Displacement of [3H]-LSD from human 5-HT6R expressed in HEK293 cells).
5-hydroxytryptamine receptor 6, sequence (P50406 whole entry): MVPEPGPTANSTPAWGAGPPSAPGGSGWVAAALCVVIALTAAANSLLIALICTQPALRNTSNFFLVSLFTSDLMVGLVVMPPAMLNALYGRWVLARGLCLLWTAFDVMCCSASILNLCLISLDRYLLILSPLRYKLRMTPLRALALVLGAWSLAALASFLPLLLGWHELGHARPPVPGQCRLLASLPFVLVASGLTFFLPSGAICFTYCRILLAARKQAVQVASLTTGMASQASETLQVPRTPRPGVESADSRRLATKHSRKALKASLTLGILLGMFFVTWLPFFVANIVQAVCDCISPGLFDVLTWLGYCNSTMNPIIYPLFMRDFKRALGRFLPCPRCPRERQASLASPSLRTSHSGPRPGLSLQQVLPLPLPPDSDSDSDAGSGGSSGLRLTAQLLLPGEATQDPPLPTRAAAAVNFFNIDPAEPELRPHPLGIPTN
Type: cell-based
For `CN1CCN(c2nc(N)nc(Cc3cccc(Cl)c3)n2)CC1`, the Ki was 28 nM.
`CN1CCN(c2nc(N)nc(Cc3ccc(F)cc3)n2)CC1` was tested, and the Ki was 100 nM.
Compound `CN1CCN(c2nc(N)nc(Cc3ccccc3F)n2)CC1` has a Ki of 88 nM.
`CN1CCN(c2nc(N)nc(Cc3c[nH]c4ccccc34)n2)CC1` showed a Ki of 22 nM.
For `CN1CCN(c2nc(N)nc(Cc3cccc4ccccc34)n2)CC1`, the Ki was 20 nM.
For `CN1CCN(c2nc(N)nc(Cc3ccncc3)n2)CC1`, the Ki was 1830 nM.
Compound `CN1CCN(c2nc(N)nc(Cc3cccs3)n2)CC1` has a Ki of 305 nM.
For `CN1CCN(c2nc(N)nc(Cc3ccccc3)n2)CC1`, the Ki was 95 nM.
For `CN1CCN(c2nc(N)nc(Cc3ccc(Cl)c(Cl)c3)n2)CC1`, the Ki was 32 nM.
In the case of `Cc1ccccc1Cc1nc(N)nc(N2CCN(C)CC2)n1`, the Ki is reported as 80 nM.
With `COc1ccc(Cc2nc(N)nc(N3CCN(C)CC3)n2)cc1` the Ki was 440 nM.
Work on `COc1ccccc1Cc1nc(N)nc(N2CCN(C)CC2)n1` yielded a Ki of 193 nM.
With `COc1cccc(Cc2nc(N)nc(N3CCN(C)CC3)n2)c1` the Ki was 158 nM.
For `CN1CCN(c2nc(N)nc(Cc3ccccc3Cl)n2)CC1`, the Ki was 56 nM.
`CN1CCN(c2nc(N)nc(Cc3cccc(F)c3)n2)CC1` was tested, and the Ki was 64 nM.
`Cc1ccc(Cc2nc(N)nc(N3CCN(C)CC3)n2)cc1` gave a Ki of 64 nM.
